Results reported in US12624127B2, “Chitosan derivatives as antimicrobials and synergistic combinations thereof” (priority 2022, dated 2026).

Key:
[1] = tested on: A. baumannii AB-1; test: Checkerboard synergy assay of 2,6-DAC with antibiotics; type: cell-based, Acinetobacter baumannii; details: for Synergy with 2,6-DAC (in words) / MIC, antibiotic in combination: A. baumannii AB-1; for MIC, antibiotic in combination: antibiotic concentration in combination with 2,6-DAC (8 μg/mL); for MIC of antibiotic +16 μg/mL 2,6-DAC / MIC of antibiotic +32 μg/mL 2,6-DAC: A. baumannii AB-1 (MDR)
Experimental: (§1) 2,6-DAC was screened as a potentiating agent for synergistic combinations with antibiotics against both A. baumannii AB-1 and MRSA USA300. Before the synergy tests, the MIC values of antibiotics were tested against MDR A. baumannii AB-1 and MRSA USA300 by following the MIC determination protocol in Example 4. Then, the synergy of 2,6-DAC with antibiotics was determined.
(§2) Synergy was measured by time killing assay and checkerboard assay. Time killing assay was performed by following the protocol in Example 4. Checkerboard susceptibility assays to measure combinations of antimicrobials were performed in MHB at 37° C. as previously described (K. R. V. Thappeta et al., ACS Infect. Dis. 2020, 6, 1228-1237; and Z. Si et al., Angew. Chem. Int. Ed. 2020, 59, 6819-6826). The fractional inhibitory concentration (FIC) indices were calculated according to the following formula: […]

[2] = tested on: A. baumannii; test: MIC determination, broth micro dilution; type: cell-based, Acinetobacter baumannii; details: A. baumannii AB-1, antibiotic alone; for MIC: Acinetobacter baumannii, read-out: MIC of antibiotic without 2,6-DAC
Experimental: (§3) MIC values were determined using a broth micro dilution method. Bacteria cells were grown overnight at 37° C. in MHB to a mid-log phase (OD600 between 0.4-0.5 for each organism) and diluted in MHB to 10^5 CFU/mL. […] 50 μL of the 1-5×10^5 CFU/mL bacterial cultures (final concentration) was aliquoted into 96-well microtiter plates and mixed with 50 μL of two-fold dilutions of the polymer or antibiotics and incubated for 16-18 h at 37° C. with shaking at 200 rpm.
as §1

[3] = tested on: A. baumannii AB-1; test: Time killing assay; type: cell-based, Acinetobacter baumannii; details: for Killing of bacteria by single agent (in words): sub-inhibitory concentration, alone, 24 h
Experimental: The plates were sealed and incubated at 37° C. with shaking at 200 rpm.
At 0, 0.5, 1, 2, 3, 5, and 24 h post-inoculation, each well was thoroughly mixed with a multi-channel pipette and 20 μL of sample was removed, serially diluted in sterile PBS, plated on LB agar plates, and incubated at 37° C. for 12 h. Colonies were counted to determine the CFU/mL at each time point.
as §2

[4] = tested on: MRSA USA300; test: Checkerboard synergy assay of 2,6-DAC with antibiotics; type: cell-based; details: for MIC, antibiotic in combination: antibiotic concentration in combination with 2,6-DAC
Experimental: as §1, §2

[5] = tested on: MRSA; test: MIC determination, broth micro dilution; type: cell-based; details: Staphylococcus aureus; MRSA USA300; read-out: MIC of antibiotic alone / without 2,6-DAC
Experimental: as §3, §1

[6] = tested on: 3T3 cells
Experimental: In a 96-well plate, 3T3 cells were co-cultured for 24 h at 37° C. with polymer (100 μg/mL or 200 μg/mL) at initial cell density of 1×10^5 cells per well. At the end of the incubation period, the culture medium was removed, each well was washed with PBS followed by the addition of MTT solution, and the plate was incubated for 4 h at 37° C. The MTT medium was then removed, 100 μL of DMSO was added to each well, the plate was shaken at 100 rpm for 15 min and the absorbance at 570 nm was measured with plate reader (BIO-RAD Benchmark Plus, US).

[7] = set-up: species or system mice; details: mouse, in vivo, ip, 25 mg/kg
Experimental: The biomarkers were determined before treatment (Day 0), and Day 1 and Day 7 after administration. The biomarkers of Day 0 were the untreated controls. The animal experiments were carried out in accordance to the Code of Practice for the Institutional Care and Use of Animals for Scientific Purposes and were approved by the Ethics Committee of Ningbo University.

[8] = tested on: rabbit erythrocyte suspension; test: Hemolytic activity test; type: cell-based; details: 78 μg/mL, 1 h
Experimental: Fresh rabbit blood (5 mL) was washed three times with sterilized PBS and diluted to a final concentration of 5% v/v. A series concentration of 2,6-DAC and Gramicidin control were incubated with the prepared erythrocyte suspension for 1 h with shaking in a 96-well plate. The supernatant (80 μL) was aliquoted to a new plate after centrifugation at 1000 g for 10 min. The absorbance at 540 nm was recorded by the TECAN microplate reader. 0.1% Triton X-100 that can lyse red blood cells completely was used as the positive control (Op), and PBS was used as the negative control (On). The percentage of hemolysis was determined by the following equation: Hemolysis%=[(Ox−On)/(Op−On)]×100% Results and Discussion

[9] = tested on: MDR A. baumannii (AB-1); test: Neutropenic lung infection model in BALB/c mice; type: in vivo, Acinetobacter baumannii; details: rifampicin 10 mg/kg alone, 24 h
Experimental: Bacterial cultures of MDR . baumannii (AB-1) were prepared and used to infect 8-week-old female BALB/c mice. 10^8 CFU/mL of AB-1 (30 μL) was inhaled by the mouse to introduce the infection via the intranasal route. After 2 h of infection, a specific dosage of antibiotic (novobiocin or rifampicin, 10 mg/kg), 2,6-DAC (25 mg/kg) or the combination of antibiotic (novobiocin or rifampicin, 10 mg/kg) and 2,6-DAC (25 mg/kg) were administrated through the intranasal route for 2,6-DAC and through the intraperitoneal route for antibiotic. Mice euthanasian at indicated time points (24 h) was achieved by CO2 asphyxiation followed by cervical dislocation. For histopathological analysis, the lung was fixed in 10% neutral buffered formalin and embedded in paraffin. The paraffin-embedded sections were stained with H&E. The lung was recovered and counted for bacteria concentration.

[10] = tested on: MDR A. baumannii (AB-1); test: Intraperitoneal infection model in BALB/c mice; type: in vivo, Acinetobacter baumannii
Experimental: Bacterial cultures of MDR A. baumannii (AB-1) were prepared and used to infect 8-week-old female BALB/c mice. 10^6 CFU/mL of AB-1 (300 μL) was injected into the intraperitoneal cavity to introduce the infection. After 2 h of infection, specific dosage of antibiotic (novobiocin or rifampicin, 10 mg/kg), 2,6-DAC (25 mg/kg) or the combination of antibiotic (novobiocin or rifampicin, 10 mg/kg) and 2,6-DAC (25 mg/kg) were injected into the intraperitoneal cavity. PBS was used as a control. Mice euthanasian at the indicated time points (18 h) was achieved by CO2 asphyxiation followed by cervical dislocation. The intraperitoneal fluid, kidney, spleen and liver were recovered, and counted for bacteria concentration. For histopathological analysis, the kidney, spleen and liver were fixed in 10% neutral buffered formalin and embedded in paraffin. The paraffin-embedded sections were stained with H&E. The animal studies were carried out in accordance to protocol (A20029) approved by the NTU Institutional Animal Care and Use Committee (NTU-IACUC).

Compound	Synergy with 2,6-DAC (in words) [1]	MIC, antibiotic in combination [1] [µg/mL]	MIC [2] [µg/mL]	Killing of bacteria by single agent (in words) [3]	Synergy with 2,6-DAC (in words) [4]	MIC of antibiotic +16 μg/mL 2,6-DAC [1] [µg/mL]	MIC of antibiotic +32 μg/mL 2,6-DAC [1] [µg/mL]	MIC [5] [µg/mL]	MIC, antibiotic in combination [4] [µg/mL]	also measured
C[C@]1(Cn2ccnn2)[C@H](C(=O)O)N2C(=O)C[C@H]2S1(=O)=O [Tazobactam]	synergistic activity	16	64	no killing of bacteria						Bactericidal efficacy, combination with 2,6-DAC ([3]; 2,6-DAC 0.5×MIC + tazobactam 0.06×MIC): 4 log10
CO/N=C(\C(=O)N[C@@H]1C(=O)N2C(C(=O)O)=C(CSc3nc(=O)c(=O)[nH]n3C)CS[C@H]12)c1csc(N)n1 [Ceftriaxone]			> 128		no synergy	128	2	16		
2,6-Diamino Chitosan [Compound 5a]										Biocompatibility (in words) [6]: good biocompatibility; Change in biomarkers of kidney and liver functions (in words) [7]: did not cause a significant change
Gramicidin										Hemolysis [8]: 100%
CC(C)(O/N=C(\C(=O)N[C@@H]1C(=O)N2C(C(=O)[O-])=C(C[n+]3ccccc3)CS[C@H]12)c1csc(N)n1)C(=O)O [Ceftazidime]			> 128		no synergy	128	2	16		
C[C@@H](O)[C@H]1C(=O)N2C(C(=O)O)=C(S[C@@H]3CN[C@H](C(=O)N(C)C)C3)[C@H](C)[C@H]12 [Meropenem]			64			4	1	1	0.5	
CO[C@H]1/C=C/O[C@@]2(C)Oc3c(C)c(O)c4c(O)c(c(/C=N/N5CCN(C)CC5)c(O)c4c3C2=O)NC(=O)/C(C)=C\C=C\[C@H](C)[C@H](O)[C@@H](C)[C@@H](O)[C@@H](C)[C@H](OC(C)=O)[C@@H]1C [Rifampicin]										Reduction of lung bacteria, single agent [9]: around 1.6 log10
NC[C@H]1O[C@H](O[C@H]2[C@H](O)[C@@H](O[C@H]3O[C@H](CO)[C@@H](O)[C@H](N)[C@H]3O)[C@H](N)C[C@@H]2N)[C@H](N)C[C@@H]1O [Tobramycin]	synergistic activity	2	> 128	no killing of bacteria				1	0.25	MIC of antibiotic without 2,6-DAC [2]: >128 µg/mL; Reduction, combination with 2,6-DAC ([3]; 2,6-DAC 0.5×MIC + tobramycin 0.002×MIC): 2 log10
NCC[C@H](O)C(=O)N[C@@H]1C[C@H](N)[C@@H](O[C@H]2O[C@H](CN)[C@@H](O)[C@H](O)[C@H]2O)[C@H](O)[C@H]1O[C@H]1O[C@H](CO)[C@@H](O)[C@H](N)[C@H]1O [Amikacin]	synergistic activity	2	> 128	no killing of bacteria	no synergy			1.56		MIC of antibiotic without 2,6-DAC [2]: >128 µg/mL; Bactericidal efficacy, combination with 2,6-DAC ([3]; 2,6-DAC 0.5×MIC + amikacin 0.002×MIC): 4 log10
CO[C@@H]1[C@@H](OC(N)=O)[C@@H](O)[C@H](Oc2ccc3c(O)c(NC(=O)c4ccc(O)c(CC=C(C)C)c4)c(=O)oc3c2C)OC1(C)C [Novobiocin]	synergistic activity	0.5	8	no killing of bacteria				0.125	0.03125	Histology of liver, spleen and kidney, combination treatment (in words) ([10]; 2,6-DAC + novobiocin, H&E): significantly alleviated these tissue abnormalities; Histology of liver, spleen and kidney, individual treatment (in words) ([10]; alone, H&E, vs infection control): did not improve the tissue appearance; Efficacy of single agent in intraperitoneal fluid and distal organs (in words) ([10]; alone: 2,6-DAC 25 mg/kg or novobiocin 10 mg/kg, i.p., 18 h): ineffective; Bacteria killing, combination with 2,6-DAC ([3]; 2,6-DAC 0.25×MIC + novobiocin 0.125 to 0.25×MIC): 4 log10
